Measured values as given in article PMC11990879, “Anticandidal Activity of Lipopeptides Containing an LL-37-Derived Peptide Fragment KR12” (Molecules, 2025).
Where two headings read alike, the source gives them in different places. Marks after values point to notes of the source that are not given here. Where a SMILES comes first, the peptide text is derived from it. Where no end group is shown, it is not given here. The star is where a group is joined. Benzoyl(4-Ph) = O=C(c1ccc(-c2ccccc2)cc1)*; Butanoyl(4-Ph) = O=C(CCCc1ccccc1)*; Hydrocinnamoyl = O=C(CCc1ccccc1)*; Octanoyl = CCCCCCCC(=O)*; X2 = O=C(C#Cc1ccccc1)*; X4 = CCCCC(CC)C(=O)*

Experiments:
[1] = test system: Candida strains (C. albicans, C. glabrata, C. lipolytica, C. tropicalis); type: cell-based
Protocol: (§1) Fungal strains were purchased from the Polish Collection of Microorganisms (Polish Academy of Science, Wroclaw, Poland). Four reference strains of Candida (C. albicans ATCC 10231, C. glabrata ATCC 15126, C. lypolytica PCM 2680, and C. tropicalis PCM 2680) were cultured on the Dextrose Sabouraud Agar (DSA, Neogen, Lansing, MI, USA). Before performing the assays, the fungi were cultured in a Sabouraud dextrose broth (DSB, Neogen, Lansing, MI, USA) for 48 h under aerobic conditions at 25 °C. Afterward, the fungal cultures were centrifuged (2500 rpm, 10 min) and resuspended in the appropriate liquid medium for appropriate inoculums for the performed assays.
(§2) The strains cultured described in Section 4.1 were suspended in the Roswell Park Memorial Institute 1640 Medium (RPMI, Sigma-Aldrich, St. Louis, MO, USA) at an initial inoculum of ca. 5 × 10^3 CFU/mL. The stock solutions (1024 mg/L) of tested compounds in RPMI were added to 96-well polystyrene plates and diluted serially to well no. 10, leaving wells 11 and 12 for fertility and sterility controls. The tested Candida strains were exposed to graded concentrations (range 0.5–256 mg/L) of the lipopeptides and conventional antifungals (benzalkonium chloride, fluconazole, and nystatin) for 48 h under aerobic conditions at 25 °C. After incubation, the results were read visually.
Then the results were read visually. Both MIC as well as the MFC assays were performed threetimes on three different days.

[2] = test system: C. albicans biofilms cultured on polystyrene; type: cell-based, Candida albicans
Protocol: as §1
Fungal suspensions in DSB were added to the wells at initial inoculums of ca. 5 × 10^6 CFU/mL and incubated under aerobic conditions, at 25 °C for 24 h, 48 h, and 72 h, in order to grow candidal biofilms of different maturity. After the appropriate time of incubation, the wells were washed with phosphoric buffered (PBS), and fresh RPMI medium supplemented with antifungals and the lipopeptides at graded concentrations (range […]) were added. The fungal biofilms were exposed to the compounds for 24 h (aerobic conditions, 25 °C). After the exposure to antifungals, the content of the wells was aspirated and a 0.01% solution of resazurin (Sigma-Aldrich, St. Louis, MO, USA) in DSB was added. Resazurin (blue) was applied as a cell viability reagent, which upon contact with living cells is reduced to a pink resorufin. The samples with the dye were incubated for 1 h at 25 °C and the absorbance was measured at 570 and 600 nm with a microplate reader (Thermo Fisher Scientific, Waltham, MA, USA). The assays were performed four times on four different days. The results are presented as the means of the measured percentage of metabolic activity (MA) of fungi in the well when compared with positive (sample with Candida in DSB) and negative controls (pure DSB), which were taken as 100% and 0%, respectively. The MA of Candida in the samples was measured according to the following formula:MA(%) = (ΔAbs of sample − ΔAbs of negative control)/(ΔAbs of positive control − ΔAbs of negative control);(1) ΔAbs = absorbance at 570 nm − absorbance at 600 nm.(2)
The MBEC was taken as the lowest concentration of antifungal which allowed us to reduce the metabolism of fungal cells to 10% (or less) of the positive control.

human red blood cells = conditions: cited from earlier work
Excerpt: Table 2 Minimum inhibitory concentrations (MIC) and minimum fungicidal concentrations (MFC) determined for peptides and reference antifungals [g/L]. The highest antimicrobial activity is marked in green, medium values in yellow, while the weakest antifungal activity is marked in red. Minimum hemolytic concentration (MHC5%—causing hemolysis of 5% of human red blood cells) determined in previous stu | column: MHC5%

C. albicans ATCC 10231 = experiment: microbe, parasite or virus in culture; type: cell-based, Candida albicans; conditions: no inhibition at the highest concentration applied
Protocol: as §1, §2

C. tropicalis PCM 2680 = experiment: microbe, parasite or virus in culture; type: cell-based, Candida tropicalis; conditions: no inhibition at the highest concentration applied
Protocol: as §1, §2

[3] = human red blood cells, determined in previous studies, ref [13],[14]
[4] = biofilms cultured on polystyrene, 24 h
[5] = biofilms cultured on polystyrene, 48 h
[6] = biofilms cultured on polystyrene, 72 h

C[C@@H]1[C@H](O)[C@@H](C)/C=C/C=C/CC/C=C/C=C/C=C/C=C/C(O[C@H]2O[C@H](C)[C@@H](O)[C@H](N)[C@@H]2O)CC2O[C@](O)(CC(O)C(O)CCC(O)CC(O)CC(O)CC(=O)O[C@H]1C)CC(O)C2C(=O)O (stereo partly shown) [Nystatin, nystatin, reference compound]
Fungicidal activity (MFC relative to MIC) ([1]; MFCs equal to or twice as high as the corresponding MICs): fungicidal activity against all Candida strains | Antibiofilm concentration (256 mg/L) relative to the determined MIC ([2]; C. albicans biofilm): over 100 times | MBEC 24 h ([2]; C. albicans biofilm cultured on polystyrene for 24 h, exposure 24 h, 25 °C, RPMI, resazurin, metabolic activity reduced to 10% or less, four times on four days): 256 mg/L | MBEC 48 h ([2]; C. albicans biofilm cultured on polystyrene for 48 h, exposure 24 h, 25 °C, RPMI, resazurin, metabolic activity reduced to 10% or less, four times on four days): 256 mg/L | MBEC 72 h ([2]; C. albicans biofilm cultured on polystyrene for 72 h, exposure 24 h, 25 °C, RPMI, resazurin, metabolic activity reduced to 10% or less, four times on four days): 256 mg/L

CCCCCCCC(=O)NCCCC[C@H](NC(=O)[C@H](CC(C)C)NC(=O)[C@H](Cc1ccccc1)NC(=O)[C@H](CC(=O)O)NC(=O)[C@H](CCCCN)NC(=O)[C@@H](NC(=O)[C@H](CCCNC(=N)N)NC(=O)[C@H](CCC(N)=O)NC(=O)[C@@H](NC(=O)[C@@H](NC(=O)[C@H](CCCNC(=N)N)NC(=O)[C@@H](N)CCCCN)[C@@H](C)CC)C(C)C)[C@@H](C)CC)C(N)=O [XV, [Lys^ε(C8)]^12KR12-NH2] (H-KRIVQRIKDFLK(Octanoyl)-NH2)
MHC5% (minimum hemolytic concentration causing hemolysis of 5% of human red blood cells) (human red blood cells; [3]): >256 * g/L

CCCCCCCC(=O)NCCCC[C@H](NC(=O)CCCCCCC)C(=O)N[C@@H](CCCNC(=N)N)C(=O)N[C@H](C(=O)N[C@H](C(=O)N[C@@H](CCC(N)=O)C(=O)N[C@@H](CCCNC(=N)N)C(=O)N[C@H](C(=O)N[C@@H](CCCCN)C(=O)N[C@@H](CC(=O)O)C(=O)N[C@@H](Cc1ccccc1)C(=O)N[C@@H](CC(C)C)C(=O)N[C@@H](CCCNC(=N)N)C(N)=O)[C@@H](C)CC)C(C)C)[C@@H](C)CC [XVI, C8^α,C8^ε-KR12-NH2] (Octanoyl-K(Octanoyl)RIVQRIKDFLR-NH2)
Growth inhibition of C. albicans (MIC) (C. albicans ATCC 10231): resistant | Growth inhibition of C. tropicalis (MIC) (C. tropicalis PCM 2680): resistant | MHC5% (minimum hemolytic concentration causing hemolysis of 5% of human red blood cells) (human red blood cells): >256 * g/L

CCCCCCCC(=O)NCCCC[C@H](NC(=O)[C@H](CCCNC(=N)N)NC(=O)[C@@H](NC(=O)[C@@H](NC(=O)[C@H](CCC(N)=O)NC(=O)[C@H](CCCNC(=N)N)NC(=O)[C@@H](NC(=O)[C@H](CCCCN)NC(=O)[C@H](CC(=O)O)NC(=O)[C@H](Cc1ccccc1)NC(=O)[C@H](CC(C)C)NC(=O)[C@@H](N)CCCNC(=N)N)[C@@H](C)CC)C(C)C)[C@@H](C)CC)C(N)=O [XVII, Retro-KR12-C8^ε-NH2] (H-RLFDKIRQVIRK(Octanoyl)-NH2)
MHC5% (minimum hemolytic concentration causing hemolysis of 5% of human red blood cells) (human red blood cells; [3]): 256 g/L

CCCCCCCC(=O)N[C@@H](CCCNC(=N)N)C(=O)N[C@@H](CC(C)C)C(=O)N[C@@H](Cc1ccccc1)C(=O)N[C@@H](CC(=O)O)C(=O)N[C@@H](CCCCN)C(=O)N[C@H](C(=O)N[C@@H](CCCNC(=N)N)C(=O)N[C@@H](CCC(N)=O)C(=O)N[C@H](C(=O)N[C@H](C(=O)N[C@@H](CCCNC(=N)N)C(=O)N[C@@H](CCCCN)C(N)=O)[C@@H](C)CC)C(C)C)[C@@H](C)CC [XVIII, C8^α-retro-KR12-NH2] (Octanoyl-RLFDKIRQVIRK-NH2)
MHC5% (minimum hemolytic concentration causing hemolysis of 5% of human red blood cells) (human red blood cells; [3]): >256 * g/L

CCCCC(CC)C(=O)N[C@@H](CCCCN)C(=O)N[C@@H](CCCNC(=N)N)C(=O)N[C@H](C(=O)N[C@H](C(=O)N[C@@H](CCC(N)=O)C(=O)N[C@@H](CCCNC(=N)N)C(=O)N[C@H](C(=O)N[C@@H](CCCCN)C(=O)N[C@@H](CC(=O)O)C(=O)N[C@@H](Cc1ccccc1)C(=O)N[C@@H](CC(C)C)C(=O)N[C@@H](CCCNC(=N)N)C(N)=O)[C@@H](C)CC)C(C)C)[C@@H](C)CC (stereo partly shown) [XX, 2-Ethylhexanoic acid-KR12-NH2] (X4-KRIVQRIKDFLR-NH2)
MHC5% (minimum hemolytic concentration causing hemolysis of 5% of human red blood cells) (human red blood cells): 256 g/L

CC[C@H](C)[C@H](NC(=O)[C@H](CCCNC(=N)N)NC(=O)[C@H](CCC(N)=O)NC(=O)[C@@H](NC(=O)[C@@H](NC(=O)[C@H](CCCNC(=N)N)NC(=O)[C@H](CCCCN)NC(=O)CCc1ccccc1)[C@@H](C)CC)C(C)C)C(=O)N[C@@H](CCCCN)C(=O)N[C@@H](CC(=O)O)C(=O)N[C@@H](Cc1ccccc1)C(=O)N[C@@H](CC(C)C)C(=O)N[C@@H](CCCNC(=N)N)C(N)=O [XXII, 3-Phenylpropionic acid-KR12-NH2] (Hydrocinnamoyl-KRIVQRIKDFLR-NH2)
MHC5% (minimum hemolytic concentration causing hemolysis of 5% of human red blood cells) (human red blood cells; [3]): 256 g/L

CC[C@H](C)[C@H](NC(=O)[C@H](CCCNC(=N)N)NC(=O)[C@H](CCC(N)=O)NC(=O)[C@@H](NC(=O)[C@@H](NC(=O)[C@H](CCCNC(=N)N)NC(=O)[C@H](CCCCN)NC(=O)CCCc1ccccc1)[C@@H](C)CC)C(C)C)C(=O)N[C@@H](CCCCN)C(=O)N[C@@H](CC(=O)O)C(=O)N[C@@H](Cc1ccccc1)C(=O)N[C@@H](CC(C)C)C(=O)N[C@@H](CCCNC(=N)N)C(N)=O [XXIII, 4-Phenylbutanoic acid-KR12-NH2] ({Butanoyl(4-Ph)}-KRIVQRIKDFLR-NH2)
MHC5% (minimum hemolytic concentration causing hemolysis of 5% of human red blood cells) (human red blood cells): 128 g/L

CC[C@H](C)[C@H](NC(=O)[C@H](CCCNC(=N)N)NC(=O)[C@H](CCC(N)=O)NC(=O)[C@@H](NC(=O)[C@@H](NC(=O)[C@H](CCCNC(=N)N)NC(=O)[C@H](CCCCN)NC(=O)C#Cc1ccccc1)[C@@H](C)CC)C(C)C)C(=O)N[C@@H](CCCCN)C(=O)N[C@@H](CC(=O)O)C(=O)N[C@@H](Cc1ccccc1)C(=O)N[C@@H](CC(C)C)C(=O)N[C@@H](CCCNC(=N)N)C(N)=O [XXIV, Phenylpropiolic acid-KR12-NH2] (X2-KRIVQRIKDFLR-NH2)
MHC5% (minimum hemolytic concentration causing hemolysis of 5% of human red blood cells) (human red blood cells): 256 g/L

CC[C@H](C)[C@H](NC(=O)[C@H](CCCNC(=N)N)NC(=O)[C@H](CCC(N)=O)NC(=O)[C@@H](NC(=O)[C@@H](NC(=O)[C@H](CCCNC(=N)N)NC(=O)[C@H](CCCCN)NC(=O)c1ccc(-c2ccccc2)cc1)[C@@H](C)CC)C(C)C)C(=O)N[C@@H](CCCCN)C(=O)N[C@@H](CC(=O)O)C(=O)N[C@@H](Cc1ccccc1)C(=O)N[C@@H](CC(C)C)C(=O)N[C@@H](CCCNC(=N)N)C(N)=O [XXV, 4-Phenylbenzoic acid-KR12-NH2] ({Benzoyl(4-Ph)}-KRIVQRIKDFLR-NH2)
MIC, range over the tested strains ([1]; 48 h): 4 to 16 mg/L | MBEC 24 h [2, 4]: >512 * mg/L | MBEC 48 h [2, 5]: >512 * mg/L | MBEC 72 h [2, 6]: >512 * mg/L | MHC5% (minimum hemolytic concentration causing hemolysis of 5% of human red blood cells) (human red blood cells): 32 g/L

Ac-KRIVQRIKDFLR-NH2 [I, Ac-KR12-NH2]
MHC5% (minimum hemolytic concentration causing hemolysis of 5% of human red blood cells) (human red blood cells; [3]): >256 * g/L

KRIVQRIKDFLR-NH2 [X, KR12-NH2]
MBEC 24 h [2, 4]: >512 * mg/L | MBEC 48 h [2, 5]: >512 * mg/L | MBEC 72 h [2, 6]: >512 * mg/L | MHC5% (minimum hemolytic concentration causing hemolysis of 5% of human red blood cells) (human red blood cells): >256 * g/L
